In patent publication US11622951B2, “Alpha-aminoadipate for treatment of vision loss and restoring sight” (The Schepens Eye Research Institute, Inc., priority 2013, dated 2023):
Entries after “also recorded” stand apart in the source; their conditions may differ.

Legend:
Type in all cases: in vivo, mouse
retinal neurons = experiment: Retinal neuron morphology and lamina structure after injection (electron microscopy, Nissl, recoverin, syntaxin)
Experimental: Mice were anesthetized by intraperitoneal injection of ketamine (62.5 mg/kg) and xylazine (12.5 mg/kg) and transcardially perfused with phosphate buffered saline (PBS) followed by 4% paraformaldehyde in PBS. Retinal flat-mounts or transverse retinal sections (14 μm) were preblocked with PBS containing 3% bovine serum albumin (Sigma-Aldrich, St. Louis, Mo.) and 0.3% Triton X (Sigma-Aldrich) and incubated, first, with primary antibody overnight, and then with secondary antibody for 1 hour at room temperature. The following antibodies were used: Cy3-conjugated monoclonal antibody against GFAP (1:1000; Sigma), Brn-3b (1:200; Santa Cruz Biotechnology; Santa Cruz, Calif.), mouse anti-rhodopsin (1:4000; Rho1D4), chick anti-cone-opsin (1:300), and Cy-2, Cy-3 or Cy-5-conjugated secondary antibody (Jackson ImmunoResearch; West Grove, Pa.). Assessment of morphological integration were quantified by counting EGFP+ cells located outside of transplanted cell clusters in retinal whole-mounts. Statistical significance was determined by either the two tailed student t test or ANOVA.
Mice were sacrificed 3 days after receiving the injection of α-AA (1 μg/μl) or saline as controls by injection of overdose of ketamine/xylazine followed by cervical dislocation, and the eyeballs were dissected, fixed with Karnovsky's fixative (pH 7.4) for 24 h. The quadrants of the eyes that received subretinal injection were dissected and embedded in Epon-Araldite. Semi-thin sections (1-2 μm) were stained with phenylenediamine phase staining. The sections were examined and photographed with a transmission electron microscope (EM410; Philips; Eindhoven, The Netherlands). Ten randomly selected retinal sections of each eye were photographed at 1900× magnification, and all Müller glial nuclei in the photomicrograph were counted.
Retinal sections were examined under electron microscopy, in which Müller glia were identified by their characteristic angular nuclei, dense chromatin and dark perinuclear cytoplasm (FIG. 1e-h). […]

[1] = system: rod photoreceptor cell function; experiment: Scotopic ERG a-wave after retinal progenitor transplantation in Gnat1-/- mice; details: pretreatment plus retinal progenitor cell transplantation, 21 days post transplantation
Experimental: At 2 days before transplantation, 2 μl of a solution containing either α-AA (1 μg/μl) or saline (control) was injected unilaterally into the subretinal space of recipient wild-type or Gnat1^−/− mice (>2 months old). The procedure for donor cell preparation was essentially as described by Kinouchi et al, 2003, Nat Neurosci, 6:863-868. Briefly, retinal progenitor cells were isolated from postnatal day 0 (P0) EGFP transgenic mice. Cell suspensions containing approximately 1×10^6 dissociated cells were injected slowly through a glass micropipette into the subretinal space of pretreated recipient mice through the same injection site where either saline or α-AA had been injected 2 days prior.
At 21 days post transplantation, Gnat1−/− mice that had received either α-AA or saline-pretreatment followed by retinal progenitor cell transplantation were analyzed by full-field ERG. Mice were dark adapted for 12 hours and then anesthetized by intraperitoneal injection of ketamine (62.5 mg/kg) and xylazine (12.5 mg/kg). […] A total of six scans were taken and averaged; the a-wave amplitudes were measured from baseline to the peak in the cornea-negative direction. […] Statistical significance was calculated using the Student's t test or ANOVA. […]

[2] = system: cone photoreceptor function; experiment: Flicker ERG under cone-isolation conditions in Rho-/- mice; details: Rho-/- mice injected subretinally at 6 weeks old, 4 weeks later, vs saline contralateral eye
Experimental: Mice carrying rhodopsin deficiency (Rho^−/−) were used to determine if injection of alpha-aminoadipate (αAA) is sufficient to induce neuroregeneration from endogenous retinal progenitors, e.g., Muller cells, leading to preservation and restoration of photoreceptor cell function. Light-evoked photoreceptor responses and retinal functions in Rho^−/− mice that received αAA or saline injection were assessed using ERGS and whole cell-attached patch clamp.
To determine if αAA induces functional neuroregeneration in Rho^−/− mice, αAA was injected subretinally into the left eyes of 6 week-old Rho^−/− mice, while their contralateral eyes were injected with saline and served as controls. After a 4 week survival period to allow regeneration of new photoreceptors, mouse ERG was measured in both eyes and then performed immunohistochemistry to identify photoreceptor cells. Rho^−/− mice lack the rod photoreceptor cell component or ERG a-wave. As cones consist of ˜3% of photoreceptors in mice, it is difficult to assess cone action a-wave; therefore, flicker ERG photometry under cone-isolation conditions was used to measure cone functions. […]

cone photoreceptor cells = experiment: Cone opsin immunohistochemistry of retinal sections of Rho-/- mice
Experimental: To determine if αAA induces functional neuroregeneration in Rho^−/− mice, αAA was injected subretinally into the left eyes of 6 week-old Rho^−/− mice, while their contralateral eyes were injected with saline and served as controls. After a 4 week survival period to allow regeneration of new photoreceptors, mouse ERG was measured in both eyes and then performed immunohistochemistry to identify photoreceptor cells. Rho^−/− mice lack the rod photoreceptor cell component or ERG a-wave. As cones consist of ˜3% of photoreceptors in mice, it is difficult to assess cone action a-wave; therefore, flicker ERG photometry under cone-isolation conditions was used to measure cone functions. […] The ERG b-wave arises from neural activity downstream of photoreceptors, its presence in the αAA treated eye has a very important implication: not only is the treatment creating new or preserving existing photoreceptors, such photoreceptors are integrating into the existing retinal circuitry in such a way as to elicit activity in downstream neurons (most likely bipolar cells). […] Consistent with the presence of ERG b-waves in αAA-treated eye, light-elicited spiking responses in some of the ganglion cells were observed (n=4/9) (FIG. 15 A, B). […] In contrast, no light-elicited responses in ganglion cells were recorded from the saline-injected eyes (n=4/4, FIG. 14C). […]

## NC(CCCC(=O)O)C(=O)O (stereo not drawn) [α-AA, alpha-aminoadipate]
Retinal neurons; 3 days after subretinal injection
  retinal neuron morphology (electron microscopy): No abnormality in retinal neuron morphology
Retinal neurons; day 3 after injection, vs saline-injected controls
  morphology and lamina structure (recoverin, syntaxin immunolabeling): No apparent changes; also recorded: No significant difference
Retinal neurons; mouse, in vivo
  neuronal toxicity: No neuronal toxicity
[1]
  ERG a-wave (rod photoreceptor response): a typical a-wave was detected
[2]
  ERG b-wave (flicker ERG): sizable b-wave
Cone photoreceptor cells; single intraocular injection
  retinal neuron damage: does not cause apparent retinal neuron damage
Cone photoreceptor cells; single subretinal injection at 6 weeks old, vs saline-treated control
  number of cone photoreceptor cells: increased number of cone photoreceptor cells
